Source: US20230107642A1 (Erasca, Inc., priority 2020, published 2023)

Biological target: T1, Cys12 of the KRAS 4B G12C protein (Homo sapiens, UniProt P01116, G12C)
T1 construct: This protein contained 188 amino acids in total, including an N-terminal 6-Histidine tag; made in house; host or cells: E. coli BL21
Assay: In vitro covalent adduct formation (CAF) assay, LC-MS intact mass
Assay type: binding
Conditions: 10 uM compound, 60 min
How it was run: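 Percent covalent modification from intact-mass LC-MS, by relative free versus adducted protein (adducts within 1 Da of expected mass). Reaction: 10 μM compound with 5 μM E. coli-expressed, GDP-exchanged KRAS 4B G12C in TBS pH 7.4, 4% DMSO, 1 h at 22° C.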

Compound | % CAF 10 uM @ 60 min [%]
C=CC(=O)N1[C@H](C)CN(c2nc(=O)n3c4c(c(-c5cc(Cl)c(F)cc5F)c(C(F)(F)F)cc24)SC[C@@H]3CN2C[C@@H]3C[C@H]2CO3)C[C@@H]1C [Example 1302, (3S)-3-(((1S,4S)-2-oxa-5-azabicyclo[2.2.1]heptan-5-yl)methyl)-7-((3S,5R)-4-acryloyl-3,5-dimethylpiperazin-1-yl)-10-(5-chloro-2,4-difluorophenyl)-9-(trifluoromethyl)-2,3-dihydro-5H-[1,4]thiazino[2,3,4-ij]quinazolin-5-one] | 78.9
C=CC(=O)N1C[C@H](C)N(c2nc(=O)n3c4c(c(-c5cc(Cl)c(F)cc5F)c(C(F)(F)F)cc24)SC[C@@H]3CN2C[C@@H]3C[C@H]2CO3)C[C@H]1C [Example 1304] | 87
C=CC(=O)N1C[C@H](C)N(c2nc(=O)n3c4c(c(-c5cc(Cl)c(F)cc5F)c(C(F)(F)F)cc24)SC[C@@H]3CN2CCN(C3CC3)CC2)C[C@H]1C [Example 1307, (3S)-7-((2S,5R)-4-acryloyl-2,5-dimethylpiperazin-1-yl)-10-(5-chloro-2,4-difluorophenyl)-3-((4-cyclopropylpiperazin-1-yl)methyl)-9-(trifluoromethyl)-2,3-dihydro-5H-[1,4]thiazino[2,3,4-ij]quinazolin-5-one] | 69.7
[2H]C1([2H])N(C(=O)C=C)C([2H])([2H])C([2H])([2H])N(c2nc(=O)n3c4c(c(-c5cc(Cl)c(F)cc5F)c(C(F)(F)F)cc24)SCC2(COC2)C3)C1([2H])[2H] [Example 1309, 8′-(4-acryloylpiperazin-1-yl-2,2,3,3,5,5,6,6-d8)-11′-(5-chloro-2,4-difluorophenyl)-10′-(trifluoromethyl)-2′H,4′H,6′H-spiro[oxetane-3,3′-[1,4]thiazepino[2,3,4-ij]quinazolin]-6′-one] | 97
C=CC(=O)N1C[C@H](C)N(c2nc(=O)n3c4c(c(-c5cccc6cnn(C)c56)c(Cl)cc24)SC[C@@H]3CN2CCN(C3CC3)CC2)C[C@H]1C [Example 1310, (3S)-7-((2S,5R)-4-acryloyl-2,5-dimethylpiperazin-1-yl)-9-chloro-3-((4-cyclopropylpiperazin-1-yl)methyl)-10-(1-methyl-1H-indazol-7-yl)-2,3-dihydro-5H-[1,4]thiazino[2,3,4-ij]quinazolin-5-one] | 95
C=CC(=O)N1CCN(c2nc(=O)n3c4c(c(-c5cc(Cl)c(F)cc5F)c(C(F)(F)F)cc24)SC[C@@H]3CN2C[C@@H]3C[C@H]2CO3)CC1 [Example 1311] | 95.4

Same assay, conditions: 10 μM compound, after 1 hour

CAF (% after 1 hour) [%] | Compound
94 | C=CC(=O)N1[C@H](C)CN(c2nc(=O)n3c4c(c(-c5cc(Cl)c(F)cc5F)c(C(F)(F)F)cc24)SC[C@@H](Oc2cc(C)on2)C3)C[C@@H]1C [Example 1230, (3S,11R)-8-((3S,5R)-4-acryloyl-3,5-dimethylpiperazin-1-yl)-11-(5-chloro-2,4-difluorophenyl)-3-((5-methylisoxazol-3-yl)oxy)-10-(trifluoromethyl)-3,4-dihydro-2H,6H-[1,4]thiazepino[2,3,4-ij]quinazolin-6-one]
38 | C=CC(=O)N1[C@H](C)CN(c2nc(=O)n3c4c(c(-c5cc(Cl)c(F)cc5F)c(C(F)(F)F)cc24)SC[C@@H](Oc2cc(C)on2)C3)C[C@@H]1C [Example 1231, (3S,11S)-8-((3S,5R)-4-acryloyl-3,5-dimethylpiperazin-1-yl)-11-(5-chloro-2,4-difluorophenyl)-3-((5-methylisoxazol-3-yl)oxy)-10-(trifluoromethyl)-3,4-dihydro-2H,6H-[1,4]thiazepino[2,3,4-ij]quinazolin-6-one]
94 | C=CC(=O)N1[C@H](C)CN(c2nc(=O)n3c4c(c(-c5cc(Cl)c(F)cc5F)c(C(F)(F)F)cc24)SC[C@@H](Oc2ccncc2)C3)C[C@@H]1C [Example 1234, (3S)-8-((3S,5R)-4-acryloyl-3,5-dimethylpiperazin-1-yl)-11-(5-chloro-2,4-difluorophenyl)-3-(pyridin-4-yloxy)-10-(trifluoromethyl)-3,4-dihydro-2H,6H-[1,4]thiazepino[2,3,4-ij]quinazolin-6-one]
94 | C=CC(=O)N1[C@H](C)CN(c2nc(=O)n3c4c(c(-c5cc(Cl)c(F)cc5F)c(C(F)(F)F)cc24)SC[C@@H](OCCN(CC)CC)C3)C[C@@H]1C [Example 1236, (3S)-8-((3S,5R)-4-acryloyl-3,5-dimethylpiperazin-1-yl)-11-(5-chloro-2,4-difluorophenyl)-3-(2-(diethylamino)ethoxy)-10-(trifluoromethyl)-3,4-dihydro-2H,6H-[1,4]thiazepino[2,3,4-ij]quinazolin-6-one]
90 | C=CC(=O)N1[C@H](C)CN(c2nc(=O)n3c4c(c(-c5cc(Cl)c(F)cc5F)c(C(F)(F)F)cc24)SCC2(CC2)C3)C[C@@H]1C [Example 1237, 8′-((3S,5R)-4-acryloyl-3,5-dimethylpiperazin-1-yl)-11′-(5-chloro-2,4-difluorophenyl)-10′-(trifluoromethyl)-2′H,4′H,6′H-spiro[cyclopropane-1,3′-[1,4]thiazepino[2,3,4-ij]quinazolin]-6′-one]
95 | C=CC(=O)N1[C@H](C)CN(c2nc(=O)n3c4c(c(-c5cc(Cl)c(F)cc5F)c(C(F)(F)F)cc24)SCC2(CCC2)C3)C[C@@H]1C [Example 1238, 8′-((3S,5R)-4-acryloyl-3,5-dimethylpiperazin-1-yl)-11′-(5-chloro-2,4-difluorophenyl)-10′-(trifluoromethyl)-2′H,4′H,6′H-spiro[cyclobutane-1,3′-[1,4]thiazepino[2,3,4-ij]quinazolin]-6′-one]
95 | C=CC(=O)N1[C@H](C)CN(c2nc(=O)n3c4c(c(-c5cc(Br)c(F)cc5F)c(C(F)(F)F)cc24)SC[C@@H](OC)C3)C[C@@H]1C [Example 1239, (3S)-8-((3S,5R)-4-acryloyl-3,5-dimethylpiperazin-1-yl)-11-(5-bromo-2,4-difluorophenyl)-3-methoxy-10-(trifluoromethyl)-3,4-dihydro-2H,6H-[1,4]thiazepino[2,3,4-ij]quinazolin-6-one]
91 | C=CC(=O)N1[C@H](C)CN(c2nc(=O)n3c4c(c(-c5cc(Cl)c(F)cc5F)c(C(F)(F)F)cc24)SC[C@@H](NCC(F)(F)F)C3)C[C@@H]1C [Example 1240, (3S)-8-((3S,5R)-4-acryloyl-3,5-dimethylpiperazin-1-yl)-11-(5-chloro-2,4-difluorophenyl)-3-((2,2,2-trifluoroethyl)amino)-10-(trifluoromethyl)-3,4-dihydro-2H,6H-[1,4]thiazepino[2,3,4-ij]quinazolin-6-one]
70 | C=CC(=O)N1[C@H](C)CN(c2nc(=O)n3c4c(c(-c5nc(N)c(F)cc5F)c(C(F)(F)F)cc24)SC[C@@H](OC)C3)C[C@@H]1C [Example 1242, (3S)-8-((3S,5R)-4-acryloyl-3,5-dimethylpiperazin-1-yl)-11-(6-amino-3,5-difluoropyridin-2-yl)-3-methoxy-10-(trifluoromethyl)-3,4-dihydro-2H,6H-[1,4]thiazepino[2,3,4-ij]quinazolin-6-one]
92 | C=CC(=O)N1[C@H](C)CN(c2nc(=O)n3c4c(c(-c5cc(Cl)c(F)cc5F)c(C(F)(F)F)cc24)SCC2(CC(=O)C2)C3)C[C@@H]1C [Example 1243, 8′-((3S,5R)-4-acryloyl-3,5-dimethylpiperazin-1-yl)-11′-(5-chloro-2,4-difluorophenyl)-10′-(trifluoromethyl)-2′H,4′H,6′H-spiro[cyclobutane-1,3′-[1,4]thiazepino[2,3,4-ij]quinazoline]-3,6′-dione]

Continued, compound first:

Compound | CAF (% after 1 hour) [%]
[2H]C([2H])([2H])O[C@@H]1CSc2c(-c3ccc(F)cc3)c(C(F)(F)F)cc3c(N4C[C@@H](C)N(C(=O)C=C)[C@@H](C)C4)nc(=O)n(c23)C1 [Example 1229, (S)-8-((3S,5R)-4-acryloyl-3,5-dimethylpiperazin-1-yl)-11-(4-fluorophenyl)-3-(methoxy-d3)-10-(trifluoromethyl)-3,4-dihydro-2H,6H-[1,4]thiazepino[2,3,4-ij]quinazolin-6-one] | 96
C=CC(=O)N1[C@H](C)CN(c2nc(=O)n3c4c(c(-c5ccc(F)cc5)c(C(F)(F)F)cc24)SC[C@@H](OCC(=O)N(C)C)C3)C[C@@H]1C [Example 1232, 2-(((S)-8-((3S,5R)-4-acryloyl-3,5-dimethylpiperazin-1-yl)-11-(4-fluorophenyl)-6-oxo-10-(trifluoromethyl)-3,4-dihydro-2H,6H-[1,4]thiazepino[2,3,4-ij]quinazolin-3-yl)oxy)-N,N-dimethylacetamide] | 93
C=CC(=O)N1[C@H](C)CN(c2nc(=O)n3c4c(c(-c5ccc(F)cc5)c(C(F)(F)F)cc24)SC[C@@H](OCC(N)=O)C3)C[C@@H]1C [Example 1233, 2-(((S)-8-((3S,5R)-4-acryloyl-3,5-dimethylpiperazin-1-yl)-11-(4-fluorophenyl)-6-oxo-10-(trifluoromethyl)-3,4-dihydro-2H,6H-[1,4]thiazepino[2,3,4-ij]quinazolin-3-yl)oxy)acetamide] | 95
C=CC(=O)N1[C@H](C)CN(c2nc(=O)n3c4c(c(-c5ccc(F)cc5C(N)=O)c(C(F)(F)F)cc24)SC[C@@H](OC)C3)C[C@@H]1C [Example 1235, 2-((3S)-8-((3S,5R)-4-acryloyl-3,5-dimethylpiperazin-1-yl)-3-methoxy-6-oxo-10-(trifluoromethyl)-3,4-dihydro-2H,6H-[1,4]thiazepino[2,3,4-ij]quinazolin-11-yl)-5-fluorobenzamide] | 69
C=CC(=O)N1[C@H](C)CN(c2nc(=O)n3c4c(c(-c5cc(Cl)c(F)cc5F)c(C(F)(F)F)cc24)SCC2(CN(CC(F)(F)F)C2)C3)C[C@@H]1C [Example 1241, 8′-((3S,5R)-4-acryloyl-3,5-dimethylpiperazin-1-yl)-11′-(5-chloro-2,4-difluorophenyl)-1-(2,2,2-trifluoroethyl)-10′-(trifluoromethyl)-2′H,4′H,6′H-spiro[azetidine-3,3′-[1,4]thiazepino[2,3,4-ij]quinazolin]-6′-one] | 91
